Test results from ChEMBL document CHEMBL1914428, “Investigating the role of the hydroxyl groups of substrate erythrose 4-phosphate in the reaction catalysed by the first enzyme of the shikimate pathway” (Bioorg Med Chem Lett, 2011).
The source made the active and inactive calls. No cut-off for these calls is given here.

Tests used:
Pyrococcus furiosus [1] = assay: Activity of Pyrococccus furiosus DAH7P synthase type 1beta by spectrophotometry in the presence of Mn2+
[2] = test system: Mycobacterium tuberculosis; assay: Ratio of Kcat to Km of Mycobacterium tuberculosis DAH7P synthase type 2
Escherichia coli [3] = assay: Ratio of Kcat to Km of Escherichia coli phenylalanine-sensitive DAH7P synthase type 1alpha
Escherichia coli [4] = assay: Activity of Escherichia coli phenylalanine-sensitive DAH7P synthase type 1alpha by spectrophotometry in the presence of Mn2+
[5] = test system: Mycobacterium tuberculosis; assay: Activity of Mycobacterium tuberculosis DAH7P synthase type 2 by spectrophotometry in the presence of Mn2+
Pyrococcus furiosus [6] = assay: Ratio of Kcat to Km of Pyrococccus furiosus DAH7P synthase type 1beta
Pyrococcus furiosus [7] = assay: Inhibition of Pyrococccus furiosus DAH7P synthase type 1beta

| Structure (SMILES) | Km (Pyrococcus furiosus [1]) [µM] | kcat (Pyrococcus furiosus [1]) [s⁻¹] | kcat/Km [2] [M⁻¹ s⁻¹] | kcat/Km (Escherichia coli [3]) [M⁻¹ s⁻¹] | Km (Escherichia coli [4]) [µM] | kcat (Escherichia coli [4]) [s⁻¹] | Km [5] [µM] | kcat [5] [s⁻¹] | kcat/Km (Pyrococcus furiosus [6]) [M⁻¹ s⁻¹] | inhibition (Pyrococcus furiosus [7]) |
| --- | --- | --- | --- | --- | --- | --- | --- | --- | --- | --- |
| O=CC[C@H](O)COP(=O)(O)O | 6 | 3 | 110000 | 60000 | 410 | 25 | 46 | 4.9 | 500000 |  |
| O=C[C@H](O)[C@H](O)COP(=O)(O)O | 9 | 1.4 | 150000 | 670000 | 39 | 26 | 37 | 5.4 | 160000 |  |
| O=C[C@H](O)CCOP(=O)(O)O | 200 | 2.1 | 31000 | 2000 | 2700 | 4.5 | 77 | 2.4 | 11000 |  |
| O=CC(O)CCOP(=O)(O)O (racemic) |  |  |  |  | 2600 |  |  |  |  | Active |
